Patent US20240124483A1, “Methods for the Treatment of Fibrotic Disease” (SHY Therapeutics, LLC, priority 2021, published 2024)
Read-outs that look alike come from different tables or passages of the source.

Tests used:
[1] = molecular target: Rho-A (Homo sapiens (Human), UniProt P61586); test: Ras GTP Binding Domain Inhibition Assay, Rho-A
Procedure: (§1) A Ras Superfamily Activity Assay (as disclosed in International Application No. PCT/US2018/038613, filed Jun. 20, 2018, which is incorporated by reference in its entirety) was used as a specific assay to evaluate compounds against the following for the following Ras Superfamily proteins: KRas wild type, KRas Q61H mutant, KRas G12C mutant, KRas G12D mutant, Rac-1, and Rho-A.
(§2) Buffer-I: • 25 mM Tris-HCl, pH 7.4 • 27 mM KCl • 137 mM NaCl • 1 mM MgCl2 • 1 mM DTT
(§3) Buffer-II: • 50 mM Tris-HCl, pH 7.0 • 1 mM MgCl2 • 1 mM DTT
(§4) The small GTPases proteins: KRas wild type. KRas Q61H mutant, KRas G12C mutant, KRas G12D mutants, Rac-1, and Rho-A were expressed as His-tagged proteins. In addition, the Guanosine nucleotide Exchange Factor (GEF) Sos protein (residues 556-1049) was expressed as a His-tagged protein. In cells, the guanine nucleotide exchange factor Sos protein promotes activation of Ras proteins by stimulating an exchange of GDP for GTP. The inclusion of Sos to the Ras GTP binding domain inhibition assay may be considered as an alternative representation of physiological cellular conditions for evaluating the inhibitory activity of some of the tested small molecules.
(§5) For the assay, all purified small GTPases proteins were diluted in Buffer-I or Buffer-II to a final concentration of 10-30 μg/mL. 200 μL of each diluted protein was added to a nickel-coated 96-well plate and incubated overnight at 4° C. Then the protein solution was discarded and 200 μL of Buffer-I or Buffer-II was added to each well in the presence of 1% DMSO. Compounds to be tested were added to the protein-coated wells at final concentration of 20 μM, and incubated for 3 hours at room temperature with and without 10-30 μg/mL of Sos added to the final hour of the incubation. When performing IC50 measurements a serial dilution of all tested concentrations was added. Then Cy3-GTP or Cy5-GTP was added to each well to a final concentration of 100 nM. The labeled GTP was incubated for 45 minutes at room temperature. Following GTP incubation, wells were washed 3× in Buffer-I or Buffer-II and 200 μL of Buffer-I or Buffer-II was added to each well. Following washes, the amount of bound labeled-GTP was measured using a SpectraMax M3 (Molecular Devices).

[2] = tested on: Smad2/3 phosphorylation; test: Phospho-Smad2/3 Inhibition Assay in Panc-1 (western blot); assay type: cell-based; details: Homo sapiens; for inhibition at 10 µM: 3 hours, PANC-1 stimulated with 10 ng/ml TGF-b1 for 1 hour, read-out: % inh of Smad2/3 phosphorylation in PANC-1
Procedure: Cell lines: Human tumor-derived pancreatic cancer cell line Panc-1 and mouse muscle myoblast C2C12 were purchased from American Type Culture Collection and grown in complete DMEM-High Glucose, supplemented with penicillin (100 U/mL), streptomycin (100 μg/mL), and 10% heat-inactivated FBS at 37° C. in a humidified incubator with 5% CO2.
Method: Cells were plated at 350000 cells/well density in a 12-well plate, allowed 3 hours to adhere to the plate, then starved in the appropriate medium in the presence of 0.5% FBS overnight. The small molecules to be tested were added to the cells in the final concentration of 10 μM in the presence of 0.3% DMSO for 3 hours incubation at 37° C. For IC50 value determination, serial dilutions of compounds were added to cells under the same conditions. Next, Panc-1 cells were stimulated with 10 ng/ml TGF-b1 for 1 hour, and C2C12 cells were stimulated with 10 ng/ml TGF-b1 for 20 minutes (recombinant human TGF-b1, R&D Systems). After stimulation cells were lysed with lysis buffer containing 1% Triton X-100, EDTA, and Halt™ Protease & Phosphatase Inhibitor Cocktail (Thermo Scientific). Protein concentration was assessed by BCA protein assay (Thermo Scientific). Phosphorylation level of Smad2/Smad3 was determined by western blot.
Western blot protocol: Equal amounts of protein (15-50 μg) were separated by SDS-PAGE and transferred to nitrocellulose membranes (Invitrogen by Thermo Fisher Scientific). The membrane was stained with Ponceau S Stain (Boston BioProducts) to verify uniform protein loading. Membranes were blocked with 10% milk and phosphorylation levels of Smad2/Smad3 were assessed by incubating overnight at 4° C. with the following antibodies: Phospho-Smad2 (Ser465/467) and Phosph-Smad3 (Ser423/425), both from Cell Signaling Technology. Then the membranes were incubated with HRP-conjugated secondary antibody (Jackson Immunoresearch, West Grove, PA). Bands were incubated in Amersham ECL Prime Western Blotting Detection Reagent (GE Healthcare) and visualized using the ChemiDoc MP imaging system (Bio-Rad).

[3] = molecular target: KRas G12D mutant (Homo sapiens (Human), UniProt P01116, G12D); test: Ras GTP Binding Domain Inhibition Assay, KRas G12D mutant; details: for inhibition at 20 µM: Table 7; for KRas G12D mutant: % inh. / KRas G12D mutant + SOS: % inh.: 20 uM, Table 8
Chain of KRas G12D mutant (P01116 other isoform, or with tags, fused parts or gaps G12D): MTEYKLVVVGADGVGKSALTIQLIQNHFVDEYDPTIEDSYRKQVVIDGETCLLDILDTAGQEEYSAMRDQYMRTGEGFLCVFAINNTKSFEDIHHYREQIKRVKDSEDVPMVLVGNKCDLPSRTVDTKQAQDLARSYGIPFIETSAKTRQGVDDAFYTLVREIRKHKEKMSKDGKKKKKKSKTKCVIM
Procedure: as §1, §2, §3, §4, §5

[4] = molecular target: KRas Q61H mutant (Homo sapiens (Human), UniProt P01116, Q61H); test: Ras GTP Binding Domain Inhibition Assay, KRas Q61H mutant
Chain of KRas Q61H mutant (P01116 other isoform, or with tags, fused parts or gaps Q61H): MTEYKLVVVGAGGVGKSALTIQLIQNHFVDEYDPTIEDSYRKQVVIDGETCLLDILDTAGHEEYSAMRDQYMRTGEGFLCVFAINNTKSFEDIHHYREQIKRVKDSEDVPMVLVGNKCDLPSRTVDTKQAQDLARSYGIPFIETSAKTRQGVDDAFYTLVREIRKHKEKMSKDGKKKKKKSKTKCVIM
Procedure: as §1, §2, §3, §4, §5

[5] = without SOS, read-out: Rho-A: % inh.
[6] = without SOS, read-out: KRas G12D mutant: % inh.
[7] = + SOS, read-out: KRas Q61H mutant + SOS: % inh.
[8] = without SOS, read-out: KRas Q61H mutant: % inh.
[9] = + SOS, read-out: Rho-A + SOS: % inh.
[10] = + SOS, read-out: KRas G12D mutant + SOS: % inh.

Chain of Rho-A (P61586 whole entry, species assumed, the tested form may be a part): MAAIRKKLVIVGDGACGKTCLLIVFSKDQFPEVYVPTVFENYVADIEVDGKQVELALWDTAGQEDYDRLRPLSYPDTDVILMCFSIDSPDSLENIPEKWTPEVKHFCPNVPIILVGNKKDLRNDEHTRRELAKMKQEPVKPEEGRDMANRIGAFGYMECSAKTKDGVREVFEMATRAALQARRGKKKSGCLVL

Row | SMILES | inhibition at 20 µM [1, 5] | inhibition at 10 µM [2] | inhibition at 20 µM [3, 6] | KRas G12D mutant: % inh. ([3]; without SOS) | inhibition at 20 µM [4, 7] | inhibition at 20 µM [4, 8] | inhibition at 20 µM [1, 9] | IC50 ([2]; PANC-1, TGF-b1 stimulated) | inhibition at 20 µM [3, 10] | KRas G12D mutant + SOS: % inh. ([3]; + SOS) | IC50 ([4]; + SOS)
1 | COCCNc1nc(-c2nccn2C)nc2sc(-c3ccccc3)c(-c3ccccc3Cl)c12 [Compound 4, 5-(2-Chlorophenyl)-N-(2-methoxyethyl)-2-(1-methyl-1H-imidazol-2-yl)-6-phenylthieno[2,3-d]pyrimidin-4-amine] | 26 to 45% | 26 to 45% | 26 to 45% | B (B = 26-45% inhibition) | – | – | – | – | – | – | –
2 | COCCN(C)c1nc(-c2nccn2C)nc2sc(-c3ccccc3)c(-c3ccccc3)c12 [Compound 2, N-(2-Methoxyethyl)-N-methyl-2-(1-methyl-1H-imidazol-2-yl)-5,6-diphenylthieno[2,3-d]pyrimidin-4-amine] | 26 to 45% | 0% | 46 to 75% | C (C = 46-75% inhibition) | – | – | – | – | – | – | –
3 | COCCNc1nc(-c2nccn2C)nc2sc(-c3cccc(OC)c3Cl)c(-c3ccccc3)c12 [Compound 9, 6-(2-Chloro-3-methoxyphenyl)-N-(2-methoxyethyl)-2-(1-methyl-1H-imidazol-2-yl)-5-phenylthieno[2,3-d]pyrimidin-4-amine] | 26 to 45% | 76 to 100% | 46 to 75% | C (C = 46-75% inhibition) | 76 to 100% | 46 to 75% | 26 to 45% | 1000 to 4990 nM | 46 to 75% | C (C = 46-75% inhibition) | –
4 | COCCCNc1nc(-c2nccn2C)nc2sc(-c3ccccc3)c(-c3ccccc3)c12 [Compound 3, N-(3-Methoxypropyl)-2-(1-methyl-1H-imidazol-2-yl)-5,6-diphenylthieno[2,3-d]pyrimidin-4-amine] | 46 to 75% | 0% | 46 to 75% | C (C = 46-75% inhibition) | 46 to 75% | 46 to 75% | – | – | 1 to 25% | A (A = 1-25% inhibition) | –
5 | COCCn1ccnc1-c1nc(N[C@H]2C[C@@H](OC)C2)c2c(-c3ccccc3)c(-c3ccn(C)n3)sc2n1 [Compound 13, N-((1s,3s)-3-methoxycyclobutyl)-2-(1-(2-methoxyethyl)-1H-imidazol-2-yl)-6-(1-methyl-1H-pyrazol-3-yl)-5-phenylthieno[2,3-d]pyrimidin-4-amine] | 76 to 100% | 46 to 75% | 46 to 75% | C (C = 46-75% inhibition) | 76 to 100% | 76 to 100% | 76 to 100% | – | 76 to 100% | D (D = 76-100% inhibition) | 1000 to 4990 nM
6 | COCCNc1nc(-c2nccn2C)nc2sc(-c3ccccc3)c(-c3ccccc3)c12 [Compound 1, N-(2-Methoxyethyl)-2-(1-methyl-1H-imidazol-2-yl)-5,6-diphenylthieno[2,3-d]pyrimidin-4-amine] | 46 to 75% | 46 to 75% | 76 to 100% | D (D = 76-100% inhibition) | 46 to 75% | 46 to 75% | – | – | 1 to 25% | A (A = 1-25% inhibition) | –
7 | COC1CCN(c2nc(-c3nccn3C)nc3sc(-c4ccn(C)n4)c(-c4ccccc4)c23)CC1 [Compound 6, 4-(4-Methoxypiperidin-1-yl)-2-(1-methyl-1H-imidazol-2-yl)-6-(1-methyl-1H-pyrazol-3-yl)-5-phenylthieno[2,3-d]pyrimidine] | 0% | 0% | 26 to 45% | B (B = 26-45% inhibition) | 46 to 75% | 46 to 75% | 0% | – | 26 to 45% | B (B = 26-45% inhibition) | –
8 | COc1cccc(-c2sc3nc(-c4nccn4C)nc(NC4CCC(OC)C4)c3c2C)c1F (racemic) [Compound 10, rac-6-(2-Fluoro-3-methoxyphenyl)-N-((1R,3S)-3-methoxycyclopentyl)-5-methyl-2-(1-methyl-1H-imidazol-2-yl)thieno[2,3-d]pyrimidin-4-amine and rac-6-(2-Fluoro-3-methoxyphenyl)-N-((1R,3R)-3-methoxycyclopentyl)-5-methyl-2-(1-methyl-1H-imidazol-2-yl)thieno[2,3-d]pyrimidin-4-amine] | 76 to 100% | 1 to 25% | 76 to 100% | D (D = 76-100% inhibition) | 46 to 75% | 46 to 75% | 76 to 100% | – | 46 to 75% | C (C = 46-75% inhibition) | –
9 | CO[C@@H]1CC[C@H](Nc2nc(-c3nccn3C)nc3sc(-c4ccn(C(C)C)n4)c(-c4ccccc4)c23)C1 (single isomer, unassigned) [Compound 11] | 26 to 45% | 46 to 75% | 46 to 75% | C (C = 46-75% inhibition) | 76 to 100% | 46 to 75% | 26 to 45% | – | 46 to 75% | C (C = 46-75% inhibition) | 1000 to 4990 nM
